# Assay results published in patent US7033829B2, “Method to inhibit cell growth using oligonucleotides” (Trustees of Boston University, priority 2000, dated 2006).
# Oligonucleotides are written 5' to 3', each unit as a sugar letter and its base; * is a phosphorothioate linkage, no mark a phosphodiester; rarer units and linkages stand in square brackets, end groups in braces. Plain capitals give the bases only. d = 2'-deoxy (DNA); {P} = phosphate
# Test system: p53, E2F1
# Assay: Western analysis of p53 and E2F1 in Jurkat cells
# Assay type: cell-based, human
# Settings: by 24 hours
# Description: Oligonucleotides homologous to the telomere overhang repeat sequence (TTAGGG; SEQ ID NO:11), sequence (11mer-1: pGTTAGGGTTAG; SEQ ID NO: 5), complementary to this sequence (11mer-2: pCTAACCCTAAC; SEQ ID NO: 9) and unrelated to the telomere sequence (11mer-3: pGATCGATCGAT; SEQ ID NO: 10) were added to cultures of Jurkat cells, a line of human T cells, one of the cell types reported to undergo apoptosis in response to telomere disruption. Within 48 hours, 50% of the cells treated with 40 μM of SEQ ID NO: 5 had accumulated in the S phase, compared to 25–30% for control cells (p<0.0003, non-paired t-test; see FIGS. 19A–19D), and by 72 hours, 13% of these cells were apoptotic as determined by a sub-G0/G1 DNA content, compared to 2–3% of controls (p<0.007, non-paired t-test; see FIGS. 19E–19H). At 96 hours, 20±3% of the 11mer-1 treated cells were apoptotic compared with 3–5% of controls (p<0.0001, non-paired t-test). […] The fluorescence intensity of the cells was the same after all treatments at 4 hours and 24 hours.
# Cells were plated at a density of 180,000 cells/ml in RPMI 1640 medium supplemented with 3% FBS. […] TUNEL-positive cells were detected by FACS analysis and confocal microscopy. […] Uptake of the oligonucleotides was assessed in 5–10 μm sections with a Carl Zeiss LSM 510 confocal laser microscope. […] Fluorescence was measured on the FL-1 channel. […]
substance,measurement,value
pGTTAGGGTTAG (DNA {P}-dGdTdTdAdGdGdGdTdTdAdG) [SEQ ID NO: 5],E2F1 level,concomitant increase in the level of the E2F1 transcription factor
same,p53 level,an increase in p53
